Data taken from the supplement of paper PMC10307832.

Assays:
Experiment in all cases: relative viability (nuclei count vs DMSO), 5 days (fraction); higher = more cells survive
[1] = compound: CN(C)C[C@@H]1CCn2cc(c3ccccc32)C2=C(C(=O)NC2=O)c2cn(c3ccccc23)CCO1 [Ruboxistaurin] + O=C(c1cc(Cc2n[nH]c(=O)c3ccccc23)ccc1F)N1CCN(C(=O)C2CC2)CC1 [Olaparib] (partner 8 µM)
How it was run: (§1)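 Relative viability equals treated-well nuclei counts divided by vehicle-well nuclei counts. Counts came from 4× images of lung cancer cell lines grown in 1536-well plates for 5 days after pin-tool dosing on the day after seeding. Dosing used one drug alone or a fixed anchor-drug dose plus five library-drug doses (not always all listed) in √10 steps, and values are medians of duplicate plates.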

[2] = compound: CN(C)C[C@@H]1CCn2cc(c3ccccc32)C2=C(C(=O)NC2=O)c2cn(c3ccccc23)CCO1 [Ruboxistaurin] + Cc1nc(Nc2ncc(C(=O)Nc3c(C)cccc3Cl)s2)cc(N2CCN(CCO)CC2)n1 [Dasatinib] (partner 0.075 µM)
How it was run: as §1

[3] = compound: CN(C)C[C@@H]1CCn2cc(c3ccccc32)C2=C(C(=O)NC2=O)c2cn(c3ccccc23)CCO1 [Ruboxistaurin] + O=C(CCCCCCC(=O)Nc1ccccc1)NO [Vorinostat] (partner 1 µM)
How it was run: as §1

[4] = compound: CN(C)C[C@@H]1CCn2cc(c3ccccc32)C2=C(C(=O)NC2=O)c2cn(c3ccccc23)CCO1 [Ruboxistaurin] + C[C@]1(O)C[C@@H](c2nc(-c3ccc4ccc(-c5ccccc5)nc4c3)c3c(N)nccn32)C1 [Linsitinib] (partner 1 µM)
How it was run: as §1

[5] = compound: CN(C)C[C@@H]1CCn2cc(c3ccccc32)C2=C(C(=O)NC2=O)c2cn(c3ccccc23)CCO1 [Ruboxistaurin] + Cc1cc(Nc2cc(N3CCN(C)CC3)nc(Sc3ccc(NC(=O)C4CC4)cc3)n2)n[nH]1 [Tozasertib] (partner 0.1 µM)
How it was run: as §1

| Cell Line | relative viability ([1]; first compound 0.08 µM) | relative viability ([1]; first compound 0.8 µM) | relative viability ([1]; first compound 2.53 µM) | relative viability ([1]; first compound 8 µM) | relative viability ([2]; first compound 0.08 µM) | relative viability ([2]; first compound 0.8 µM) | relative viability ([2]; first compound 2.53 µM) | relative viability ([2]; first compound 8 µM) | relative viability ([3]; first compound 0.08 µM) | relative viability ([3]; first compound 0.8 µM) | relative viability ([3]; first compound 2.53 µM) | relative viability ([3]; first compound 8 µM) | relative viability ([4]; first compound 0.08 µM) | relative viability ([4]; first compound 0.8 µM) | relative viability ([4]; first compound 2.53 µM) | relative viability ([4]; first compound 8 µM) | relative viability ([5]; first compound 0.08 µM) | relative viability ([5]; first compound 0.8 µM) | relative viability ([5]; first compound 2.53 µM) | relative viability ([5]; first compound 8 µM) |
| --- | --- | --- | --- | --- | --- | --- | --- | --- | --- | --- | --- | --- | --- | --- | --- | --- | --- | --- | --- | --- |
| NCI-H1651 | 0.178 | 0.193 | 0.191 | 0.182 | 0.436 | 0.339 | 0.356 | 0.435 | 0.54 | 0.573 | 0.611 | 0.499 | 1.04 | 0.897 | 0.93 | 0.85 | 0.922 | 0.639 | 0.8 | 0.521 |
| NCI-H1666 | 0.832 | 0.751 | 0.786 | 0.764 | 0.82 | 0.844 | 0.764 | 0.92 | 0.998 | 1.1 | 1.08 | 1.1 | 0.951 | 0.691 | 0.964 | 0.565 | 0.653 | 0.571 | 0.582 | 0.503 |
| NCI-H1734 | 0.647 | 0.518 | 0.601 | 0.514 | 0.559 | 0.39 | 0.437 | 0.347 | 0.861 | 0.714 | 0.815 | 0.624 | 0.964 | 0.815 | 0.806 | 0.666 | 0.282 | 0.224 | 0.249 | 0.243 |
| NCI-H1755 | 0.974 | 0.853 | 0.846 | 0.775 | 0.455 | 0.387 | 0.402 | 0.346 | 0.702 | 0.849 | 0.856 | 0.811 | 1.04 | 0.976 | 0.973 | 0.879 | 0.608 | 0.55 | 0.555 | 0.525 |
| NCI-H1793 | 0.875 | – | 1.17 | 0.873 | 0.371 | 0.377 | 0.442 | 0.506 | 0.87 | – | 1.08 | 0.821 | 1.07 | 0.818 | 0.985 | 1.14 | 0.346 | 0.242 | 0.408 | 0.301 |
| NCI-H1915 | 0.241 | 0.26 | 0.268 | 0.25 | 0.308 | 0.286 | 0.267 | 0.224 | 0.473 | 0.526 | 0.513 | 0.464 | 1.12 | 1.04 | 1.03 | 1.07 | 0.456 | 0.397 | 0.396 | 0.375 |
| NCI-H1944 | 0.422 | 0.353 | 0.38 | 0.393 | 0.209 | 0.204 | 0.205 | 0.189 | 0.552 | 0.552 | 0.558 | 0.427 | 1.23 | 1.1 | 1.12 | 1.01 | 0.249 | 0.206 | 0.239 | 0.237 |
| NCI-H1975 | 0.882 | 0.784 | 0.788 | 0.713 | 0.381 | 0.278 | 0.291 | 0.257 | 0.802 | 0.696 | 0.698 | 0.682 | 1.07 | 0.916 | 0.938 | 0.769 | 0.851 | 0.54 | 0.384 | 0.189 |
| NCI-H1993 | 1.01 | 0.959 | 1.19 | 0.538 | 0.78 | 0.422 | 0.561 | 0.555 | 0.856 | 0.711 | 0.727 | 0.542 | 0.63 | 0.695 | 0.62 | 0.703 | 0.574 | 0.541 | 0.568 | 0.538 |
| NCI-H2009 | 0.764 | 0.593 | 0.748 | 0.699 | 0.341 | 0.225 | 0.267 | 0.225 | 0.794 | 0.7 | 0.756 | 0.821 | 1.18 | 1.14 | 1.18 | 1.23 | 0.765 | 0.678 | 0.768 | 0.473 |
| NCI-H2023 | 0.519 | 0.458 | 0.447 | 0.296 | 0.579 | 0.453 | 0.523 | 0.439 | 0.676 | 0.546 | 0.667 | 0.441 | 0.721 | 0.53 | 0.616 | 0.492 | 0.327 | 0.256 | 0.207 | 0.181 |
| NCI-H2085 | 0.808 | 0.703 | 0.769 | 0.909 | 0.204 | 0.254 | 0.294 | 0.219 | 0.914 | 0.82 | 0.842 | 0.815 | 1.01 | 0.806 | 0.861 | 0.809 | 0.846 | 0.74 | 0.773 | 0.797 |
| NCI-H2087 | 0.601 | 0.62 | 0.692 | 0.57 | 0.889 | 0.783 | 0.835 | 0.701 | 0.977 | 0.672 | 0.723 | 0.975 | 1.13 | 0.874 | 0.98 | 0.884 | 0.234 | 0.192 | 0.241 | 0.159 |
| NCI-H2126 | 0.888 | 0.887 | 0.915 | 0.936 | 0.697 | 0.557 | 0.611 | 0.539 | 0.844 | 0.636 | 0.871 | 0.621 | 0.744 | 0.641 | 0.749 | 0.665 | 0.975 | 0.803 | 0.923 | 0.696 |
| NCI-H2228 | 0.643 | 0.564 | 0.889 | 0.696 | 0.615 | 0.493 | 0.49 | 0.456 | 0.924 | 0.424 | 0.588 | 0.559 | 0.847 | 0.481 | 0.681 | 0.751 | 0.317 | 0.202 | 0.237 | 0.187 |
| NCI-H2347 | 0.636 | 0.614 | 0.581 | 0.451 | 0.683 | 0.272 | 0.283 | 0.229 | 0.621 | 0.679 | 0.65 | 0.561 | 0.943 | 0.902 | 0.92 | 0.984 | 0.557 | 0.468 | 0.614 | 0.415 |
| NCI-H2405 | 0.918 | 0.774 | 0.878 | 0.874 | 0.184 | 0.239 | 0.174 | 0.222 | 1.08 | 0.988 | 0.97 | 0.982 | 1.01 | 0.866 | 1.01 | 0.902 | 0.764 | 0.613 | 0.726 | 0.722 |
| NCI-H3122 | 0.743 | 0.581 | 0.559 | 0.572 | 0.953 | 0.922 | 0.753 | 0.96 | 1.14 | 0.948 | 1.03 | 1.3 | 1.03 | 0.978 | 1.03 | 1.01 | 0.426 | 0.43 | 0.426 | 0.334 |
| PC-3 [JPC-3] | 1.24 | 1.09 | 1.08 | 1.17 | 1 | 0.97 | 0.967 | 0.944 | 0.895 | 0.917 | 0.839 | 0.837 | 0.974 | 0.91 | 0.915 | 1 | 0.91 | 0.852 | 0.852 | 0.841 |
| PC-14 | 0.246 | 0.302 | 0.364 | 0.256 | 0.269 | 0.221 | 0.281 | 0.0895 | 0.892 | 0.668 | 0.785 | 0.648 | 1.02 | 0.914 | 0.936 | 0.914 | 0.596 | 0.518 | 0.546 | 0.532 |
| RERF-LC-KJ | 0.938 | 0.804 | 0.942 | 0.709 | 0.847 | 0.608 | 0.833 | 0.652 | 0.663 | 0.623 | 0.675 | 0.644 | 0.877 | 0.857 | 0.932 | 0.956 | 0.515 | 0.401 | 0.49 | 0.462 |
| SK-LU-1 | 0.483 | 0.397 | 0.536 | 0.469 | 0.195 | 0.145 | 0.163 | 0.169 | 0.946 | 0.722 | 0.776 | 0.657 | 1.14 | 0.975 | 0.991 | 0.854 | 0.414 | 0.33 | 0.323 | 0.265 |
| SK-MES-1 | 0.726 | 0.555 | 0.905 | 0.465 | 0.395 | 0.308 | 0.329 | 0.339 | 1.11 | 1.03 | 1.03 | 0.95 | 1.08 | 1 | 1.02 | 0.996 | 0.948 | 0.808 | 0.887 | 0.789 |
| SW 1573 | 0.494 | 0.369 | 0.595 | 0.482 | 0.52 | 0.331 | 0.452 | 0.456 | 0.756 | 0.413 | 0.809 | 0.698 | 0.879 | 0.839 | 0.799 | 0.772 | 0.256 | 0.19 | 0.168 | 0.124 |
| UMC-11 | 0.554 | 0.364 | 0.361 | 0.289 | 0.481 | 0.455 | 0.429 | 0.434 | 0.41 | 0.377 | 0.388 | 0.289 | 0.976 | 0.884 | 0.987 | 0.642 | 0.203 | 0.211 | 0.248 | 0.177 |
